Data set [1] has as its target T1, peripheral benzodiazepine receptor (PBR) (Rattus norvegicus, UniProt P16257).
T1 construct: Sagittal sections of the rat were prepared using Crystat microtome; from tissue; host or cells: rat brain sagittal sections (ROI: olfactory bulb)
Put plainly: In vitro affinity to PBR: displacement of [11C]DAA1106 binding on rat brain sections (autoradiography, olfactory bulb ROI). The note with it: for IC50: [11C]DAA1106 1 nM, rat brain sections, olfactory bulb, 37° C. 30 minutes, probit method. As for the experimental part: Under anesthetization with ether, male Sprague-Dawley rats (250 to 300 g; n=4) were slaughtered and the brain was quickly cut and frozen in dry ice. Sagittal sections of the rat were prepared using Crystat microtome (MICROM HM560, Carl Zeiss GmbH, Germany). The sections were previously incubated in a 50 mM Tris buffer (pH=7.4) for 30 minutes. After that, the sections were taken out and again incubated at 37° C. for 30 minutes in 50 mM Tris buffer (pH=7.4) containing each of the following reagents at the same time.
After completion of the incubation, the section was taken out and dipped in an ice-cooled Tris buffer for 2 minutes twice. The section was dipped in ice-cooled distilled water and then dried. […] A region of interest (ROI) was defined as an olfactory bulb and radioactivity was expressed in terms of a photo-stimulated-luminescence (PSL)/mm^2 region. Specific binding of [^11C]DAA1106 in the presence of DAA1106, PK11156, FMDAA1106 and FEDAA1106 of various concentrations was determined and IC50 (nM) of those reagents was calculated by a probit method.
(Loss of bound radioactivity is the signal in a displacement assay; it reports binding, not function.)

Data set [2] deals with T2, central benzodiazepine receptor (CBR).
T2 construct: IC50 CBR; other: [11C]flumazenil
The experiment in a line: Affinity to CBR using [11C]flumazenil, a selective ligand for CBR. The data set is classed as binding, rat. The conditions noted are these: [11C]flumazenil. The procedure:
(§1) On the other hand, affinity of FMDAA1106 and FEDAA1106 to central benzodiazepine receptor (CBR) was determined (Table 1) using [^11C]flumazenil which is a selective ligand for CBR. As a result, affinity of FEDAA1106 and FMDAA1106 to CBR was not less than 10 μM and was about 10,000-fold weaker than the affinity of PBR. […] Incidentally, partition coefficients (log P) of the two ligands were measured by an octanol/water (pH 7.4) partition method.

The nature of data set [3]: Partition coefficient (log P) by octanol/water (pH 7.4) partition method. The data set is classed as physicochemical. The procedure: as §1
Data set [4] relates to central benzodiazepine receptor (CBR). Put plainly: Affinity to CBR using [11C]flumazenil, a selective ligand for CBR. The format is binding, rat. The conditions noted are these: CBR versus PBR selectivity. The procedure:
as §1

As a reminder, the IC50 is the concentration that gives 50% inhibition. A high value points to weaker potency. Usually logP stands for a log measure of how a compound divides between an organic and an aqueous phase. A higher logP goes with higher lipophilicity. With `COc1ccc(OC)c(CN(C(C)=O)c2cc(F)ccc2Oc2ccccc2)c1` [DAA1106, N-(2,5-dimethoxybenzyl)-N-(5-fluoro-2-phenoxyphenyl)acetamide, reference compound], the IC50 in data set [1] was 1.62 nM; in data set [2] it was more than 10000 nM. Moreover, the logP in data set [3] came to 3.65.

Take `CCC(C)N(C)C(=O)c1cc2ccccc2c(-c2ccccc2Cl)n1` (stereo not shown) [PK11195, N-methyl-N-(1-methylpropyl)-1-(2-chlorophenyl)-isoquinoline-3-carboxamide, reference compound]: the IC50 in data set [2] was more than 10000 nM.

For the compound `COc1ccc(OCCF)c(CN(C(C)=O)c2cc(F)ccc2Oc2ccccc2)c1` [FEDAA1106, N-[2-(2-fluoro)ethyl-5-methoxybenzyl]-N-(5-fluoro-2-phenoxyphenyl)acetamide], the results for the IC50 in data set [1] and in data set [2] were 0.77 nM and more than 10000 nM, respectively. In addition, the “affinity to PBR as compared with DAA1106” value in data set [1] (relative to DAA1106) is listed as “two-fold higher affinity”. In addition, in data set [1] (relative to PK11195), the “affinity to PBR as compared with PK11195” value was “about ten-fold stronger affinity”. Further, the “affinity to CBR weaker than the affinity of PBR” value in data set [4] was “about 10,000 fold”. In data set [3], this compound showed a logP of 3.81.

For the origin of these results see patent publication US6870069B2, “Phenyloxyaniline derivatives” (National Institute of Radiological Sciences, priority 2003, dated 2005).
